Results on 43 compounds are retold here after patent US20210244721A1, “SMALL MOLECULE ENTEROVIRUS INHIBITORS AND USES THEREOF” (priority 2020, published 2021).

A value given as a limit tells only on which side of the number the result lay.

For the first data set, the system named is EV-D68 US/KY/14-18953 virus. Briefly: CPE assay, EV-D68 US/KY/14-18953 in RD cells. Format: cell-based, Enterovirus D68 (EV-D68). The following applies: EV-D68 US/KY/14-18953, RD cells.
In the case of `NNC(=O)c1cc(-c2ccccc2)nc2ccccc12` [Compound 10d, 2-phenylquinoline-4-carbohydrazide], the “SI = selectivity index (CC50/EC50)” value is reported as more than 3.

In the case of `NNC(=O)c1cc(-c2cccs2)nc2ccccc12` [Compound 12e, 2-(thiophen-2-yl)quinoline-4-carbohydrazide], the “SI = selectivity index (CC50/EC50)” value is on record as more than 8.4.

Still in this data set, the particulars now being: EV-D68 US/KY/14-18953, RD cells, CPE assay; read-out: EC50.
`NCCNC(=O)c1cc(-c2cccs2)nc2ccccc12` [Compound 6bl, N-(2-aminoethyl)-2-(thiophen-2-yl)quinoline-4-carboxamide]: the concentration giving a half-maximal response (EC50) was 0.4 µM.

Take `CN(C)CCNC(=O)c1cc(-c2ccco2)nc2ccccc12` [Compound 6bo, N-[2-(dimethylamino)ethyl]-2-(furan-2-yl)quinoline-4-carboxamide]: the concentration giving a half-maximal response (EC50) is 1.1 µM.

The data set is the same for the next values; noted with them: Enterovirus D, EVD68, RD, EV-D68 US/KY/14-18953, RD cells, CPE assay.
For `CN(C)CCNC(=O)c1cc(-c2ccco2)nc2ccccc12` [Compound 6bo, N-[2-(dimethylamino)ethyl]-2-(furan-2-yl)quinoline-4-carboxamide], the EC50 was less than 1 µM.

The same data set, now with this note: Enterovirus D, EVD68, RD, EV-D68 US/KY/14-18953, RD cells, CPE assay; read-out: EC50.
Turning to `CNCCNC(=O)c1cc(-c2ccccc2)nc2ccccc12` [Compound 6af, N-[2-(methylamino)ethyl]-2-phenylquinoline-4-carboxamide], the EC50 worked out at 0.9 µM.

A further data set has as its system RD cells. Put plainly: Cytotoxicity, neutral red method, RD cells. To be noted: RD cells, neutral red method.
Compound `CCN(CC)CCNC(=O)c1cc(-c2ccc(-c3ccccc3)cc2)nc2ccccc12` [Compound 6u, 2-{[1,1′-biphenyl]-4-yl}-N-[2-(diethylamino)ethyl]quinoline-4-carboxamide] yielded a CC50 of 9.8 ± 0.5 µM. Still for that read-out and setting: the figure for `CN(C)CCCNC(=O)c1cc(-c2cccs2)nc2ccccc12` [Compound 12b, N-[3-(dimethylamino)propyl]-2-(thiophen-2-yl)quinoline-4-carboxamide] is 40.5 ± 14 µM; for `NNC(=O)c1cc(-c2ccccc2)nc2ccccc12` [Compound 10d, 2-phenylquinoline-4-carbohydrazide] it is more than 300 µM.

With `NNC(=O)c1cc(-c2cccs2)nc2ccccc12` [Compound 12e, 2-(thiophen-2-yl)quinoline-4-carbohydrazide], the cytotoxic concentration (CC50) is more than 100 µM. Still for that read-out and setting: the figure for `CCN(CC)CCNC(=O)c1cc(-c2cnc(OC)nc2)nc2ccccc12` [Compound 6q, N-[2-(diethylamino)ethyl]-2-(2-methoxypyrimidin-5-yl)quinoline-4-carboxamide] is 174 ± 20.3 µM; for `CC(C)Oc1cc(C(=O)NCCN(C)C)c2ccccc2n1` [Compound 8a, N-[2-(dimethylamino)ethyl]-2-(propan-2-yloxy)quinoline-4-carboxamide] it is 38.5 ± 1.5 µM; for `CC(C)Oc1cc(C(=O)NC2CCN(C)CC2)c2ccccc2n1` [Compound 8g, N-(1-methylpiperidin-4-yl)-2-(propan-2-yloxy)quinoline-4-carboxamide] it is 101 ± 8.8 µM. In the case of `CCN(CC)CCNC(=O)c1cc(-c2cnn(C)c2)nc2ccccc12` [Compound 6b, N-[2-(diethylamino)ethyl]-2-(1-methyl-1H-pyrazol-4-yl)quinoline-4-carboxamide], the CC50 was determined as 251 ± 28.3 µM. The same measure, in the same setting: the value for `CCN(CC)CCNC(=O)c1cc(-c2ccc(COC)cc2)nc2ccccc12` [Compound 6n, N-[2-(diethylamino)ethyl]-2-[4-(methoxymethyl)phenyl]quinoline-4-carboxamide] was 46.6 ± 2.4 µM; that for `CCC(C)Oc1cc(C(=O)NCCN(CC)CC)c2ccccc2n1` (stereo not shown) [Compound 5f, 2-(butan-2-yloxy)-N-[2-(diethylamino)ethyl]quinoline-4-carboxamide] was 15.7 ± 1.1 µM. Still for that read-out and setting: the value for `CCOCCOc1cc(C(=O)NCCN(CC)CC)c2ccccc2n1` [Compound 5j, N-[2-(diethylamino)ethyl]-2-(2-ethoxyethoxy)quinoline-4-carboxamide] was 144 ± 40.5 µM; that for `O=C(NCCCn1ccnc1)c1cc(-c2cccs2)nc2ccccc12` [Compound 12d, N-[3-(1H-imidazol-1-yl)propyl]-2-(thiophen-2-yl)quinoline-4-carboxamide] was 55.7 ± 3.5 µM; that for `CC(C)Oc1cc(C(=O)NCCN2CCCC2)c2ccccc2n1` [Compound 8e, 2-(propan-2-yloxy)-N-[2-(pyrrolidin-1-yl)ethyl]quinoline-4-carboxamide] was 36.9 ± 20.1 µM. Compound `CCOc1cc(C(=O)NCCN(CC)CC)c2ccccc2n1` [Compound 5b, N-[2-(diethylamino)ethyl]-2-ethoxyquinoline-4-carboxamide] registered a cytotoxic concentration (CC50) of 165 ± 57.6 µM. The same measure, in the same setting: the figure for `CCN(CC)CCNC(=O)c1cc(-c2ccccc2OC)nc2ccccc12` [Compound 6k, N-[2-(diethylamino)ethyl]-2-(2-methoxyphenyl)quinoline-4-carboxamide] is 75.9 ± 6.4 µM. The same measure, in the same setting: the value for `CCN(CC)CCNC(=O)c1cc(-c2ccnn2C)nc2ccccc12` [Compound 6c, N-[2-(diethylamino)ethyl]-2-(1-methyl-1H-pyrazol-5-yl)quinoline-4-carboxamide] was 133 ± 28.7 µM. As for `CC(C)Oc1cc(C(=O)NCCN)c2ccccc2n1` [Compound 8b, N-(2-aminoethyl)-2-(propan-2-yloxy)quinoline-4-carboxamide], the half-maximal cytotoxic concentration (CC50) was 149 ± 15.3 µM.

Compound `CCN(CC)CCNC(=O)c1cc(OC2CCCC2)nc2ccccc12` [Compound 5i, 2-(cyclopentyloxy)-N-[2-(diethylamino)ethyl]quinoline-4-carboxamide] displayed a CC50 of 11.7 ± 1.2 µM. Still for that read-out and setting: the figure for `CCCOc1cc(C(=O)NCCN(CC)CC)c2ccccc2n1` [Compound 5d, N-[2-(diethylamino)ethyl]-2-propoxyquinoline-4-carboxamide] is 46.7 ± 14.7 µM; for `CCN(CC)CCCNC(=O)c1cc(-c2ccccc2)nc2ccccc12` [Compound 10b, N-[3-(diethylamino)propyl]-2-phenylquinoline-4-carboxamide] it is 45.4 ± 14 µM; for `CC(C)Oc1cc(C(=O)NCCN2CCN(C)CC2)c2ccccc2n1` [Compound 8f, N-[2-(4-methylpiperazin-1-yl)ethyl]-2-(propan-2-yloxy)quinoline-4-carboxamide] it is 88.8 ± 21.5 µM. Regarding `O=C(NCCN1CCCC1)c1cc(-c2ccccc2)nc2ccccc12` [Compound 10g, 2-phenyl-N-[2-(pyrrolidin-1-yl)ethyl]quinoline-4-carboxamide], the half-maximal cytotoxic concentration (CC50) is 46.7 ± 8.3 µM. The same measure, in the same setting: the value for `CCN(CC)CCNC(=O)c1cc(OCC2CC2)nc2ccccc12` [Compound 5g, 2-(cyclopropylmethoxy)-N-[2-(diethylamino)ethyl]quinoline-4-carboxamide] was 38.5 ± 16.8 µM; that for `CCN(CC)CCNC(=O)c1cc(-c2ccc(CN3CCOCC3)cc2)nc2ccccc12` [Compound 6o, N-[2-(diethylamino)ethyl]-2-{4-[(morpholin-4-yl)methyl]phenyl}quinoline-4-carboxamide] was 79.2 ± 8 µM; that for `CCN(CC)CCNC(=O)c1cc(-c2cnc(N(C)C)nc2)nc2ccccc12` [Compound 6p, N-[2-(diethylamino)ethyl]-2-[2-(dimethylamino)pyrimidin-5-yl]quinoline-4-carboxamide] was 74.2 ± 7 µM. On the same count and under the same terms, the value for `CCN(CC)CCNC(=O)c1cc(-c2c(C)noc2C)nc2ccccc12` [Compound 6h, N-[2-(diethylamino)ethyl]-2-(3,5-dimethyl-1,2-oxazol-4-yl)quinoline-4-carboxamide] was 129 ± 67.2 µM; that for `CCN(CC)CCNC(=O)c1cc(-c2ccncc2)nc2ccccc12` [Compound 6i, N-[2-(diethylamino)ethyl]-2-(pyridin-4-yl)quinoline-4-carboxamide] was 174 ± 55.6 µM; that for `CC(C)Oc1cc(C(=O)NCCCN(C)C)c2ccccc2n1` [Compound 8c, N-[3-(dimethylamino)propyl]-2-(propan-2-yloxy)quinoline-4-carboxamide] was 122 ± 39.2 µM. For the compound `CN(C)CCCNC(=O)c1cc(-c2ccccc2)nc2ccccc12` [Compound 10h, N-[3-(dimethylamino)propyl]-2-phenylquinoline-4-carboxamide], the CC50 turned out to be 44.9 ± 17.7 µM.

As to `CCN(CC)CCNC(=O)c1cc(OCc2ccccc2)nc2ccccc12` [Compound 5k, 2-(benzyloxy)-N-[2-(diethylamino)ethyl]quinoline-4-carboxamide], it took 13.5 ± 2.9 µM to reach half-maximal cytotoxicity (CC50). In turn, `CCN(CC)CCNC(=O)c1cc(-c2ccc3c(c2)OCCO3)nc2ccccc12` [Compound 6t, N-[2-(diethylamino)ethyl]-2-(2,3-dihydro-1,4-benzodioxin-6-yl)quinoline-4-carboxamide] showed a CC50 of 49.9 ± 13.8 µM.

`CCC(CC)Oc1cc(C(=O)NCCN(CC)CC)c2ccccc2n1` [Compound 5h, N-[2-(diethylamino)ethyl]-2-(pentan-3-yloxy)quinoline-4-carboxamide]: half-maximal cytotoxicity (CC50) was put at 9.5 ± 1.1 µM. The same measure, in the same setting: the figure for `CCN(CC)CCNC(=O)c1cc(-c2ccn[nH]2)nc2ccccc12` [Compound 6a, N-[2-(diethylamino)ethyl]-2-(1H-pyrazol-5-yl)quinoline-4-carboxamide] is 132 ± 53.3 µM; for `CCN(CC)CCNC(=O)c1cc(OCC(F)(F)F)nc2ccccc12` [Compound 5c, N-[2-(diethylamino)ethyl]-2-(2,2,2-trifluoroethoxy)quinoline-4-carboxamide] it is 33.1 ± 1.8 µM.

The data set is the same for the next values; noted with them: Table 6; RD cells.
For `COc1ccc2nc(-c3ccccc3)cc(C(=O)NCCN(C)C)c2c1` [Compound 15c, N-[2-(dimethylamino)ethyl]-6-methoxy-2-phenylquinoline-4-carboxamide], the cytotoxic concentration (CC50) was found to be 31.8 ± 1.3 µM. The same measure, in the same setting: the value for `CCN(CC)CCNC(=O)c1cc(-c2ccccc2)nc2ccc(Cl)cc12` [Compound 15b, 6-chloro-N-[2-(diethylamino)ethyl]-2-phenylquinoline-4-carboxamide] was 13.5 ± 8.1 µM; that for `CN(C)CCNC(=O)c1cc(-c2ccccc2)nc2ccc(Cl)cc12` [Compound 15a, 6-chloro-N-[2-(dimethylamino)ethyl]-2-phenylquinoline-4-carboxamide] was 14.3 ± 0.8 µM; that for `CCN(CC)CCNC(=O)c1cc(-c2ccccc2)nc2ccc(F)cc12` [Compound 19b, N-[2-(diethylamino)ethyl]-6-fluoro-2-phenylquinoline-4-carboxamide] was 24.9 ± 1.5 µM. For `CN(C)CCNC(=O)c1cc(-c2ccccc2)nc2ccc(F)cc12` [Compound 19a, N-[2-(dimethylamino)ethyl]-6-fluoro-2-phenylquinoline-4-carboxamide], it took 38.8 ± 19 µM to reach half-maximal cytotoxicity (CC50). The same measure, in the same setting: the value for `CCN(CC)CCNC(=O)c1cc(-c2ccccc2)nc2ccc(OC)cc12` [Compound 15d, N-[2-(diethylamino)ethyl]-6-methoxy-2-phenylquinoline-4-carboxamide] was 27.5 ± 7.3 µM.

A word on the EC50: it is the midpoint of the concentration-response curve. For orientation: CC50 means the concentration at which the toxic effect on the cells reaches its halfway point. A low value points to greater toxicity to the cells.
